Results from a melting point compilation (Tetko et al.; mined from patent text by program, amines drawn as free bases though some values may be those of a salt).

Row | SMILES | melting point [°C]
1 | CCCOc1cnc(CO)cc1O | 159 to 160
2 | CCOC(=O)C(=O)Nc1ccc(OC)cc1[N+](=O)[O-] | 151
3 | CN(C)n1cnnc1NN=Cc1c(Cl)cccc1Cl | 189
4 | CN1C2=NCCN2C(=O)c2cc(Cl)ccc21 | 200 to 202
5 | CCOC(=O)c1c(C)nn(-c2ccccc2[N+](=O)[O-])c1C | 128 to 130
6 | C=CC(C)c1cc(C)c2c(c1O)C(N(C)C(=O)c1cccnc1)C1CCCCC21 (centres undefined) | 183 to 184
7 | COc1ccccc1NCN1CCOC1=O | 95.5 to 98
8 | Cc1cc(SC(C)C)c(NC(=O)CCCCCCCCSc2nc3cccc(C(F)(F)F)c3o2)c(SC(C)C)n1 | 97 to 98
9 | CCOC(=O)c1c[nH]c2cnc3cc(F)c(F)cc3c2c1=O | 300
10 | CC1(C)CCc2c(ccc3c2C(=O)C=C(O)C3=O)O1 | 184 to 187
11 | Cc1c(NC(=O)CC(C)(C)C)cc2c(c1C)OC(C)(C)C2(O)c1cccc(C(C)C)c1 (centres undefined) | 136 to 137
12 | CCCNC(=O)n1c(=O)cc2n1C(c1cccc([N+](=O)[O-])c1)C(C(=O)OC(C)C)=C(C)N2 (centres undefined) | 160 to 163
13 | CC(=O)N(Cc1cc(Br)cc2[nH]c(=O)c(=O)[nH]c12)CP(=O)(O)O | > 280
14 | CCOC(=O)c1nnc2n1-c1sc(CC)cc1C(c1ccccc1Cl)=NC2 | 138 to 140
15 | COC(=O)c1cccc(O)c1O | 79 to 81
16 | CN(C)c1ccc2c(=O)c(-c3nnnn3C)cn(C)c2c1 | 280 to 283
17 | CCOCc1nc2c(N)nc3cc(-c4cccc(C(=O)N5CCOCC5)c4)ccc3c2n1CC(C)(C)O | 152 to 154
18 | C=CC(=O)Nc1ccc2ccc(Cl)nc2n1 | 200
19 | Clc1cc(Cl)nc(N2CCCC2)n1 | 95 to 98
20 | CC(=O)NC[C@H]1CN(c2ccc(C(=O)c3cnc4c(Br)cc(C)cn34)cc2)C(=O)O1 | 221 to 223
21 | N#CCc1c[nH]c2ccc(N)cc12 | 125 to 130

Row | SMILES | melting point [°C]
22 | CC(C)(C)NC(=O)c1ccc2[nH]ccc2c1 | 176
23 | NCCSC[C@H]1O[C@@H](n2cnc3c(NCc4ccc([N+](=O)[O-])cc4)ncnc32)[C@H](O)[C@@H]1O | 115 to 117
24 | O=C1Nc2ccc(Cl)cc2Cn2nnnc21 | 260 to 264
25 | CCOC(=O)COc1cc(C(=O)OC)on1 | 66 to 67
26 | Cn1cc(C(=O)O)c(=O)c2cc3cc(F)c(N4CCN(O)CC4)cc3nc21 | 290
27 | COc1cc(NS(=O)(=O)c2cccs2)c2[nH]c(C3=NCCS3)cc2c1 | 188 to 189
28 | COC(=O)c1cc2c3cc([N+](=O)[O-])ccc3n(C)c2s1 | 269 to 271
29 | COC(=O)/C=C/c1c(SC(F)(F)F)c(C#N)nn1-c1c(Cl)cc(C(F)(F)F)cc1Cl | 90
30 | CCCN1CCc2c(cccc2NC(C)=O)C1 | 123
31 | CCn1c(=O)c2c(ncn2CCCCC(C)=O)n(CC)c1=O | 68 to 69
32 | CCCCCCCCCCCCCCCCCCNC(=O)OCC(CN)NC(=O)OC (centres undefined) | 128 to 129
33 | NC(=O)CNc1ncccc1N | 153 to 155
34 | CCCCCCSc1ssc(=S)c1-c1cc(C(C)(C)C)c(O)c(C(C)(C)C)c1 | 110
35 | O=C(O)COc1nnc(C(F)(F)F)s1 | 58
36 | CCCCCCCCCCCCCOc1ccc(CO)cc1 | 72 to 75
37 | CCOC(=O)N1C=CC(c2c(-c3cccs3)nc3ccc(N4CCN(C(=O)OC(C)(C)C)CC4)nn23)C=C1 | 155
38 | CS(=O)(=O)Nc1ccc(/C=C\COCCCCCCNCC(O)c2ccc(O)c(CO)c2)cc1 (centres undefined) | 113 to 116
39 | Cc1nc2cc(NS(=O)(=O)c3cc(Cl)ccc3Cl)ccc2o1 | 194
40 | COC(=O)c1cc([N+](=O)[O-])c(N)c(F)c1F | 184
41 | C=CCn1c(S)nc2c(cnn2C)c1=O | 171 to 174
42 | CN(C)Cc1ccc(CSCCNC2=NS(=O)(=O)C(S(C)(=O)=O)=C2N)o1 | 187 to 189

Row | SMILES | melting point [°C]
43 | CC(C)(C)c1nc(Cl)n(-c2c(Cl)cc(Cl)cc2Cl)n1 | 98 to 98.5
44 | CC(C(=O)O)c1ccc(C=C2CCCC2=O)cc1 (centres undefined) | 106 to 107
45 | CCOC(=O)/C=C/c1ccc(OCCOCCOC)cc1Oc1ncc(C(F)(F)F)cc1Cl | 76.6 to 76.8
46 | Nc1cc(C(=O)Nc2ccncc2)ccc1OCC1CCCCC1 | 193 to 194
47 | O=CNC1=NN(c2cccc(Cl)n2)CC1 | 190 to 192
48 | CCCOCCOc1ccc(OCC(O)CNCCNC(N)=O)cc1 (centres undefined) | 115
49 | CCCc1c(OCCCOc2ccc3c(c2CCC)OC(C)(CCC(=O)OC)CC3)ccc(C(C)=O)c1O (centres undefined) | 53 to 55
50 | CCCCc1c(C)c(NC(=O)CC(C)(C)C)c(C)c2c1OCC2c1ccc(C(C)C)cc1 (centres undefined) | 149 to 151
51 | O=C(O)Cc1ccc(CCNS(=O)(=O)c2ccc(Cl)cc2)s1 | 138
52 | C=CCc1ccc2oc(CC)c(C)c2c1O | 38 to 40
53 | Cn1cnc2c1c(=O)n(CCCCC(=O)CBr)c(=O)n2C | 125 to 135
54 | O=C1CC(=Cc2ccccc2)C(=O)O1 | 167 to 170
55 | C=C1C(=O)CCC(C)(C)C1=O | 115 to 116
56 | CC(C)(CCl)C(=O)NO | 148 to 151
57 | Cc1cc(Oc2ccc(NC(=O)Nc3ccc(N(CCCl)CCCl)cc3)cc2)c2cc3c(cc2n1)OCO3 | 217 to 218
58 | CC(=O)NNC(=O)NC1c2ccccc2Oc2ccccc21 | 226 to 228
59 | COc1ccc2c(c1)CCC(c1ccc(OC)cc1OC)C2=O (centres undefined) | 116 to 118
60 | COc1ccnc(CCc2ccnc(N)c2N)c1 | 89 to 91
61 | CCCCCCCCCCC[C@@H](O)CC(=O)O | 70.6 to 71.4
62 | CCCCCCCC1CC(C(=O)O)C(=O)O1 (centres undefined) | 51 to 54

The remaining lines, values ahead:

Row | melting point [°C] | SMILES
63 | 122 | O=S(=O)(Nc1cccc(C=C2c3ccccc3CCc3ccccc32)c1)c1ccccc1
64 | 202 to 207 | O=S(=O)(c1ccccc1)c1c[nH]c2cccc(Br)c12
65 | 142 to 144 | Cc1cc(OCC(=O)O)c2c(c1C)-c1nc(SCCC(c3ccccc3)c3ccccc3)sc1C2
66 | 139 to 141 | COc1cc(C=CC(=O)C(Cc2ccccc2)C(=O)C=Cc2ccc(O)c(OC)c2)ccc1O (centres undefined)
67 | 160 to 162 | N#Cc1c(-c2ccc(OCc3ccccc3)cc2)n(Cc2ccc(OCCCl)cc2)c2cccc(OCc3ccccc3)c12
68 | 81 to 84 | CC=CCn1c(C)c(C)c2cnnc(OCc3ccccc3)c21
69 | 246 to 247 | Oc1c2c(nn1-c1nc3ccc(F)cc3s1)CCc1ccccc1-2
70 | 240 to 242 | NS(=O)(=O)c1cc2c(cc1Cl)C(=O)N(Cc1ccccn1)C2=O
71 | 86 to 89 | N#Cc1ccccc1Sc1ccccc1N
72 | 174 to 176 | CC(C)(C)C(=O)N1CCN(c2ccc(C(=O)CSc3ccnc4ccccc34)cc2)CC1
73 | 226 to 228 | O=C(Nc1ccc(-c2cccc(C(=O)O)c2)cc1)OCC1c2ccccc2-c2ccccc21
74 | 167 to 170 | COc1ccc(-n2ccc(O)n2)cc1
75 | 140 | Oc1ccccc1C=Cc1cccc2[nH]ccc12
76 | 194 to 196 | OC1(c2ccc(Cl)cc2)c2ccc(Cl)cc2-c2ncncc21 (centres undefined)
77 | 108 | CSc1ccc(-c2nn(Cc3ccccc3)c(=S)cc2-c2ccc(F)cc2)cc1
78 | 129 to 135 | CN1C(=O)CC[C@]2(C)c3ccc(-c4ccc(Cl)c(Cl)c4)cc3CC[C@@H]12
79 | 265 to 266 | Clc1ccc2c(c1)c(-c1ccccc1)cc1nncn12
80 | 188 to 189 | Cn1nc2c(N)nc3ccccc3c2c1CCCCCl
81 | 76 to 77 | Clc1ccccc1Cc1cccc2[nH]ccc12
82 | 251 to 252 | O=S1(=O)CCN2C=CC=C(c3ccc(Oc4ccccc4)cc3)C2=N1
83 | 208 to 211 | CC(C)(Cc1cc2nc(Cl)ccc2n1S(=O)(=O)c1ccccc1)C(=O)O

Row | melting point [°C] | SMILES
84 | 105 to 107 | CCCCCCCCCCCCCCCCCCOC(=O)c1ccc(Cn2c(=S)sc3ccccc32)cc1
85 | 265 to 266 | Cn1cc(C2=C(c3c4n(c5ccccc35)CC3CN(C(=O)OC(C)(C)C)CC3C4)C(=O)OC2=O)c2ccccc21 (centres undefined)
86 | 130 | CCc1ccc(Cn2cc(-c3ccc(OC)cc3)ccc2=O)cn1
87 | 260 to 261 | Cn1c(-c2ccc(C(=O)O)cc2)ccc1-c1ccc(C(F)(F)F)cc1
88 | 160 to 161 | CCOC(=O)C1CCN(c2ncc(NS(=O)(=O)c3ccccc3Br)c(NCc3ccc4c(c3)OCO4)n2)CC1
89 | 139 to 142 | COC(=O)c1ccc(OCC2CN(c3ccc(N)cc3)C(=O)O2)cc1 (centres undefined)
90 | 174 to 175 | CCCOc1ccc2[nH]c3c([N+](=O)[O-])ccc(Cl)c3c(=O)c2c1
91 | 224 | CC(C)n1c(=O)[nH]c2cccc(OCc3ccccc3)c21
92 | 209 to 211 | Cc1cc(C)n(-c2nc(Nc3ccc(Cl)cc3)c3ccccc3n2)n1
93 | 273 to 274 | C1=C(c2cc3ccccc3[nH]2)Cc2ccccc21
94 | 140 | COc1cc(CSc2ccc(O)cc2)cc(O)c1O
95 | 181 to 182 | O=C(NCCCCCCNC(=O)N(O)Cc1ccccc1)N(O)Cc1ccccc1
96 | 228 to 233 | Cn1nnc(COc2nn3c(-c4ccccc4)nnc3cc2-c2ccccc2)n1
97 | 81 to 84 | Cc1c(-c2ccccc2)oc2c(SCCCCCl)cccc2c1=O
98 | 148 | O=C(c1nc2ccc(O)cc2[nH]1)N1CCC(=Cc2ccccc2)CC1
99 | 200 to 203 | Cc1ccc(OCc2ccccc2)c(C(=O)O)c1C(=O)O
100 | 113 to 115 | CC(C)n1nc(C(=O)NCC2CCN(CC(=O)Nc3ccc(OCc4ccccc4)cc3)CC2)c2ccccc21
101 | 173 to 176 | CC(C)=Nn1c(C(F)(F)F)cc(=O)n(-c2cc(Oc3ccccc3[N+](=O)[O-])c(Cl)cc2F)c1=O
102 | 109 to 111 | O=C(O)CCCOc1ccc(C(=O)c2ccc(F)cc2)cc1
103 | 200 to 204 | CC(C)C[C@H](NC(=O)[C@H](Cc1cccc2ccccc12)NC(=O)OCc1ccccc1)C(=O)NN
104 | 78 to 81 | O=C1CSCc2nc(-c3ccccc3)ccc21
